Structures can show the parent of a compound that is named as a salt.

This is an account of results in patent publication US8492376B2, “Heteroaryl-cyclohexyl-tetraazabenzo[e]azulenes” (Hoffmann-La Roche Inc., priority 2010, dated 2013).

T1 sequence (P37288 whole entry): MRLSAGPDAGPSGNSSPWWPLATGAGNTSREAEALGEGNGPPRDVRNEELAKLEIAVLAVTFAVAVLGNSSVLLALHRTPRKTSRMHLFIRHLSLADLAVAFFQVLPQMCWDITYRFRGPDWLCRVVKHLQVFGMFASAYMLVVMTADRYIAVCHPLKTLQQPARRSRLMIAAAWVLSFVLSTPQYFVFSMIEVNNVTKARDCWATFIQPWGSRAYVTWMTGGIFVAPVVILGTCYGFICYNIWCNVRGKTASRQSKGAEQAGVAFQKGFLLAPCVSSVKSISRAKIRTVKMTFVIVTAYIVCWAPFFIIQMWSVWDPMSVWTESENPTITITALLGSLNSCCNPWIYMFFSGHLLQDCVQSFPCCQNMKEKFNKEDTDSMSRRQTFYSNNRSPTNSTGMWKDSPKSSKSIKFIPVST

This assay concerns the target T1, human V1a receptor (Homo sapiens, UniProt P37288).
T1 construct: expressed in transfected cells; host or cells: HEK293 cells, transiently transfected; cell membranes
Description: human V1a receptor binding studies (3H-Vasopressin, SPA beads). As to conditions: membranes from HEK293 cells transiently transfected with human V1a receptor, Ki calculated from IC50 by the Cheng-Prussoff equation, read-out: pKi (hV1a) (converted). As to the method: The human V1a receptor was cloned by RT-PCR from total human liver RNA. The coding sequence was subcloned in an expression vector after sequencing to confirm the identity of the amplified sequence. […] Cell membranes were prepared from HEK293 cells transiently transfected with the expression vector and grown in 20 liter fermenters with the following protocol.
50 g of cells are resuspended in 30 ml freshly prepared ice cold Lyses buffer (50 mM HEPES, 1 mM EDTA, 10 mM magnesium dichloride adjusted to pH=7.4+complete cocktail of protease inhibitor (Roche Diagnostics)). Homogenized with Polytron for 1 min and solicited on ice for 2×2 minutes at 80% intensity (Vibrate solicitor). The preparation is centrifuged 20 min at 500 g at 4° C., the pellet is discarded and the supernatant centrifuged 1 hour at 43′000 g at 4° C. (19′000 rpm). The pellet is resuspended in 12.5 ml Lyses buffer+12.5 ml sucrose 20% and homogenized using a Polytron for 1-2 min. The protein concentration is determined by the Bradford method and aliquots are stored at −80° C. until use. For binding studies 60 mg Yttrium silicate SPA beads (Habersham®) are mixed with an aliquot of membrane in binding buffer (50 mM Tris, 120 mM sodium chloride, 5 mM potassium chloride, 2 mM calcium dichloride, 10 mM magnesium dichloride) for 15 minutes with mixing. 50 μl of bead/membrane mixture is then added to each well of a 96 well plate, followed by 50 μl of 4 nM 3H-Vasopressin (American Radiolabeled Chemicals). For total binding measurement 100 μl of binding buffer are added to the respective wells, for non-specific binding 100 μl of 8.4 mM cold vasopressin and for compound testing 100 μl of a serial dilution of each compound in 2% dimethyl sulfoxide. The plate is incubated 1 h at room temperature, centrifuged 1 min at 1000 g and counted on a Packard Top-Count. Non-specific binding counts are subtracted from each well and data is normalized to the maximum specific binding set at 100%. To calculate an IC50 the curve is fitted using a non-linear regression model (XLfit) and the Ki is calculated using the Cheng-Prussoff equation.
Regarding `CN1Cc2cc(Cl)ccc2-n2c(nnc2[C@H]2CC[C@H](c3cc(Cl)ccn3)CC2)C1` [Example 27, trans-8-Chloro-1-[4-(4-chloro-pyridin-2-yl)-cyclohexyl]-5-methyl-5,6-dihydro-4H-2,3,5,10b-tetraaza-benzo[e]azulene], the Ki was 0.537 nM.

`CC(C)(C)OC(=O)N1Cc2cc(Cl)ccc2-n2c(nnc2[C@H]2CC[C@H](c3ncccc3F)CC2)C1` [Example 28, trans-8-Chloro-1-[4-(3-fluoro-pyridin-2-yl)-cyclohexyl]-4H,6H-2,3,5,10b-tetraaza-benzo[e]azulene-5-carboxylic acid tert-butyl ester]: the Ki was 0.2 nM.

On to `Fc1cccnc1[C@H]1CC[C@H](c2nnc3n2-c2ccc(Cl)cc2CNC3)CC1` [Example 29, trans-8-Chloro-1-[4-(3-fluoro-pyridin-2-yl)-cyclohexyl]-5,6-dihydro-4H-2,3,5,10b-tetraaza-benzo[e]azulene], for which the Ki is 1.51 nM.

In the case of `CN1Cc2cc(Cl)ccc2-n2c(nnc2[C@H]2CC[C@H](c3ncccc3F)CC2)C1` [Example 30, trans-8-Chloro-1-[4-(3-fluoro-pyridin-2-yl)-cyclohexyl]-5-methyl-5,6-dihydro-4H-2,3,5,10b-tetraaza-benzo[e]azulene], the Ki was 0.603 nM.

As to `CCN1Cc2cc(Cl)ccc2-n2c(nnc2[C@H]2CC[C@H](c3ncccc3F)CC2)C1` [Example 31, trans-8-Chloro-5-ethyl-[4-(3-fluoro-pyridin-2-yl)-cyclohexyl]-5,6-dihydro-4H-2,3,5,10b-tetraaza-benzo[e]azulene], the Ki is 0.562 nM.

Regarding `CC(C)N1Cc2cc(Cl)ccc2-n2c(nnc2[C@H]2CC[C@H](c3ncccc3F)CC2)C1` [Example 32, trans-8-Chloro-5-isopropyl-[4-(3-fluoro-pyridin-2-yl)-cyclohexyl]-5,6-dihydro-4H-2,3,5,10b-tetraaza-benzo[e]azulene], the Ki was 0.562 nM.

With `Fc1cccnc1[C@H]1CC[C@H](c2nnc3n2-c2ccc(Cl)cc2CN(C2CCC2)C3)CC1` [Example 33, trans-8-Chloro-5-cyclobutyl-[4-(3-fluoro-pyridin-2-yl)-cyclohexyl]-5,6-dihydro-4H-2,3,5,10b-tetraaza-benzo[e]azulene], the Ki was 0.302 nM.

Turning to `Fc1cccnc1[C@H]1CC[C@H](c2nnc3n2-c2ccc(Cl)cc2CN(CC(F)F)C3)CC1` [Example 34, trans-8-Chloro-5-(2,2-difluoro-ethyl)-[4-(3-fluoro-pyridin-2-yl)-cyclohexyl]-5,6-dihydro-4H-2,3,5,10b-tetraaza-benzo[e]azulene], the Ki is 0.186 nM.

For the molecule `COCCN1Cc2cc(Cl)ccc2-n2c(nnc2[C@H]2CC[C@H](c3ncccc3F)CC2)C1` [Example 35, trans-8-Chloro-1-[4-(3-fluoro-pyridin-2-yl)-cyclohexyl]-5-(2-methoxy-ethyl)-5,6-dihydro-4H-2,3,5,10b-tetraaza-benzo[e]azulene], the Ki is 0.977 nM.

Turning to `CNCCN1Cc2cc(Cl)ccc2-n2c(nnc2[C@H]2CC[C@H](c3ncccc3F)CC2)C1` [Example 36, trans-(2-{8-Chloro-1-[4-(3-fluoro-pyridin-2-yl)-cyclohexyl]-4H,6H-2,3,5,10b-tetraaza-benzo[e]azulen-5-yl}-ethyl)-methyl-amine], the Ki was 28.2 nM.

As to `CC(=O)N1Cc2cc(Cl)ccc2-n2c(nnc2[C@H]2CC[C@H](c3ncccc3F)CC2)C1` [Example 37, trans-1-{8-Chloro-1-[4-(3-fluoro-pyridin-2-yl)-cyclohexyl]-4H,6H-2,3,5,10b-tetraaza-benzo[e]azulen-5-yl}-ethanone], the Ki is 1.62 nM.

For `O=C(CO)N1Cc2cc(Cl)ccc2-n2c(nnc2[C@H]2CC[C@H](c3ncccc3F)CC2)C1` [Example 38, trans-1-{8-Chloro-1-[4-(3-fluoro-pyridin-2-yl)-cyclohexyl]-4H,6H-2,3,5,10b-tetraaza-benzo[e]azulen-5-yl}-2-hydroxy-ethanone], the Ki is 2.29 nM.

With `CN(C)CC(=O)N1Cc2cc(Cl)ccc2-n2c(nnc2[C@H]2CC[C@H](c3ncccc3F)CC2)C1` [Example 39, trans-1-{8-Chloro-1-[4-(3-fluoro-pyridin-2-yl)-cyclohexyl]-4H,6H-2,3,5,10b-tetraaza-benzo[e]azulen-5-yl}-2-dimethylamino-ethanone formate], the Ki was 2.51 nM.

With `CS(=O)(=O)N1Cc2cc(Cl)ccc2-n2c(nnc2[C@H]2CC[C@H](c3ncccc3F)CC2)C1` [Example 40, trans-8-Chloro-1-[4-(3-fluoro-pyridin-2-yl)-cyclohexyl]-5-methanesulfonyl-5,6-dihydro-4H-2,3,5,10b-tetraaza-benzo[e]azulene], the Ki is 0.178 nM.

For `CN(C)S(=O)(=O)N1Cc2cc(Cl)ccc2-n2c(nnc2[C@H]2CC[C@H](c3ncccc3F)CC2)C1` [Example 41, trans-8-Chloro-1-[4-(3-fluoro-pyridin-2-yl)-cyclohexyl]-4H,6H-2,3,5,10b-tetraaza-benzo[e]azulene-5-sulfonic acid dimethylamide], the Ki was 0.603 nM.

On to `CC(C)(C)OC(=O)N1Cc2cc(F)ccc2-n2c(nnc2[C@H]2CC[C@H](c3ncccc3F)CC2)C1` [Example 42, trans-8-Fluoro-[4-(3-fluoro-pyridin-2-yl)-cyclohexyl]-4H,6H-2,3,5,10b-tetraaza-benzo[e]azulene-5-carboxylic acid tert-butyl ester], for which the Ki was 0.525 nM.

With `Fc1ccc2c(c1)CNCc1nnc([C@H]3CC[C@H](c4ncccc4F)CC3)n1-2` [Example 43, trans-8-Fluoro-[4-(3-fluoro-pyridin-2-yl)-cyclohexyl]-5,6-dihydro-4H-2,3,5,10b-tetraaza-benzo[e]azulene], the Ki was 24.5 nM.

`CN1Cc2cc(F)ccc2-n2c(nnc2[C@H]2CC[C@H](c3ncccc3F)CC2)C1` [Example 44, trans-8-Fluoro-[4-(3-fluoro-pyridin-2-yl)-cyclohexyl]-5-methyl-5,6-dihydro-4H-2,3,5,10b-tetraaza-benzo[e]azulene]: the Ki was 8.91 nM.

On to `CC(C)(C)OC(=O)N1Cc2cc(Cl)ccc2-n2c(nnc2[C@H]2CC[C@@H](c3ncccc3F)CC2)C1` [Example 45, cis-8-Chloro-1-[4-(3-fluoro-pyridin-2-yl)-cyclohexyl]-4H,6H-2,3,5,10b-tetraaza-benzo[e]azulene-5-carboxylic acid tert-butyl ester], for which the Ki is 5.01 nM.

In the case of `Fc1cccnc1[C@H]1CC[C@@H](c2nnc3n2-c2ccc(Cl)cc2CNC3)CC1` [Example 46, cis-8-Chloro-1-[4-(3-fluoro-pyridin-2-yl)-cyclohexyl]-5,6-dihydro-4H-2,3,5,10b-tetraaza-benzo[e]azulene], the Ki is 200 nM.

For the molecule `CN1Cc2cc(Cl)ccc2-n2c(nnc2[C@H]2CC[C@@H](c3ncccc3F)CC2)C1` [Example 47, cis-8-Chloro-1-[4-(3-fluoro-pyridin-2-yl)-cyclohexyl]-5-methyl-5,6-dihydro-4H-2,3,5,10b-tetraaza-benzo[e]azulene], the Ki is 25.1 nM.

With `CC(C)(C)OC(=O)N1Cc2cc(Cl)ccc2-n2c(nnc2[C@H]2CC[C@H](c3cccnc3)CC2)C1` [Example 48, trans-8-Chloro-1-(4-pyridin-3-yl-cyclohexyl)-4H,6H-2,3,5,10b-tetraaza-benzo[e]azulene-5-carboxylic acid tert-butyl ester], the Ki is 0.603 nM.

As to `Clc1ccc2c(c1)CNCc1nnc([C@H]3CC[C@H](c4cccnc4)CC3)n1-2` [Example 49, trans-8-Chloro-1-(4-pyridin-3-yl-cyclohexyl)-5,6-dihydro-4H-2,3,5,10b-tetraaza-benzo[e]azulene], the Ki is 33.9 nM.

In the case of `CN1Cc2cc(Cl)ccc2-n2c(nnc2[C@H]2CC[C@H](c3cccnc3)CC2)C1` [Example 50, trans-8-Chloro-5-methyl-1-(4-pyridin-3-yl-cyclohexyl)-5,6-dihydro-4H-2,3,5,10b-tetraaza-benzo[e]azulene], the Ki is 4.57 nM.

`CC(C)(C)OC(=O)N1Cc2cc(Cl)ccc2-n2c(nnc2[C@H]2CC[C@H](c3cccnc3Cl)CC2)C1` [Example 51, trans-8-Chloro-1-[4-(2-chloro-pyridin-3-yl)-cyclohexyl]-4H,6H-2,3,5,10b-tetraaza-benzo[e]azulene-5-carboxylic acid tert-butyl ester]: the Ki is 2.19 nM.

As to `Clc1ccc2c(c1)CNCc1nnc([C@H]3CC[C@H](c4cccnc4Cl)CC3)n1-2` [Example 52, trans-8-Chloro-1-[4-(2-chloro-pyridin-3-yl)-cyclohexyl]-5,6-dihydro-4H-2,3,5,10b-tetraaza-benzo[e]azulene], the Ki is 81.3 nM.
